Tests used:
Type in all cases: functional
Homo sapiens [1] = species on record: Homo sapiens; experiment: Log value of hallucinogenic activity was determined
Homo sapiens [2] = species on record: Homo sapiens; experiment: Hallucinogenic activity i.e; ratio of effective dose of mescaline to the effective dose in human
Rattus norvegicus = experiment: Effective dose in rats trained on 1 mg/kg DOM.

CCOc1cc(CCN)cc(OCC)c1SCC
Log activity (Homo sapiens [1]): -0.301
Activity (Homo sapiens [2]): <1 MU

COc1cc(OC)c(CC(C)N)c(OC)c1 (stereo not drawn)
Log activity (Homo sapiens [1]): 1
Activity (Homo sapiens [2]): 10 MU
ED50 (Rattus norvegicus): 3.69 mg/kg

CCCCc1cc(OC)c(CC(C)N)cc1OC (stereo not drawn)
Log activity (Homo sapiens [1]): 1.602
Activity (Homo sapiens [2]): 40 MU
ED50 (Rattus norvegicus): 0.91 mg/kg

CCCOc1c(OC)cc(CCN)cc1OC
Log activity (Homo sapiens [1]): 0.778
Activity (Homo sapiens [2]): 6 MU

CCOc1cc(CCN)cc(SC)c1OCC
Log activity (Homo sapiens [1]): 0.301
Activity (Homo sapiens [2]): 2 MU

CCOc1cc(CCN)cc(OC)c1OCC
Log activity (Homo sapiens [1]): 0.176
Activity (Homo sapiens [2]): 1.5 MU

COc1cc(CCN)c(OC)cc1C
Log activity (Homo sapiens [1]): 1.301
Activity (Homo sapiens [2]): 20 MU
ED50 (Rattus norvegicus): 1.31 mg/kg

COc1cc(OC)c(OC)cc1CCN
Log activity (Homo sapiens [1]): -0.301
Activity (Homo sapiens [2]): <1 MU

COc1cc(CCN)cc(SC)c1OC
Log activity (Homo sapiens [1]): 0.778
Activity (Homo sapiens [2]): 6 MU

CCOc1cc(CCN)cc(SCC)c1OC
Log activity (Homo sapiens [1]): -0.301
Activity (Homo sapiens [2]): <1 MU

CCOc1cc(CCN)cc(OCC)c1OCC
Log activity (Homo sapiens [1]): -0.301
Activity (Homo sapiens [2]): <1 MU

COc1ccc(CC(C)N)c(OC)c1OC (stereo not drawn)
Log activity (Homo sapiens [1]): 0.301
Activity (Homo sapiens [2]): 2 MU
ED50 (Rattus norvegicus): 7.8 mg/kg

CCSc1cc(CCN)cc(OC)c1OC
Log activity (Homo sapiens [1]): 0.778
Activity (Homo sapiens [2]): 6 MU

CCCCCc1cc(OC)c(CC(C)N)cc1OC (stereo not drawn)
Log activity (Homo sapiens [1]): 1
Activity (Homo sapiens [2]): 10 MU

COc1cc(CC(C)N)c(OC)c(OC)c1 (stereo not drawn)
Log activity (Homo sapiens [1]): 0.602
Activity (Homo sapiens [2]): 4 MU
ED50 (Rattus norvegicus): 16.5 mg/kg

COc1c(CC(C)N)ccc2c1OCO2 (stereo not drawn)
Log activity (Homo sapiens [1]): 1
Activity (Homo sapiens [2]): 10 MU

CCOc1cc(CCN)cc(OCC)c1SC
Log activity (Homo sapiens [1]): -0.301
Activity (Homo sapiens [2]): <1 MU

CCCCSc1c(OC)cc(CCN)cc1OC
Log activity (Homo sapiens [1]): 0.477
Activity (Homo sapiens [2]): 3 MU

COc1ccc(CC(C)N)cc1OC (stereo not drawn)
Log activity (Homo sapiens [1]): -0.301
Activity (Homo sapiens [2]): 0.5 MU

CCCc1cc(OC)c(CC(C)N)cc1OC (stereo not drawn)
Log activity (Homo sapiens [1]): 1.903
Activity (Homo sapiens [2]): 80 MU
ED50 (Rattus norvegicus): 0.17 mg/kg

COc1cc(CCN)cc(OC)c1OC [MESCALINE]
Log activity (Homo sapiens [1]): 0
Activity (Homo sapiens [2]): 1 MU
ED50 (Rattus norvegicus): 14.6 mg/kg

CCOc1cc(CCN)cc(OC)c1SC
Log activity (Homo sapiens [1]): 0.602
Activity (Homo sapiens [2]): 4 MU

COc1cc(SC)c(OC)cc1CC(C)N (stereo not drawn)
Log activity (Homo sapiens [1]): 1.602
Activity (Homo sapiens [2]): 40 MU

COc1ccc(OC)c(CC(C)N)c1 (stereo not drawn)
Log activity (Homo sapiens [1]): 0.903
Activity (Homo sapiens [2]): 8 MU
ED50 (Rattus norvegicus): 5.51 mg/kg

NCCc1ccc2c(c1)OCO2
Log activity (Homo sapiens [1]): 0
Activity (Homo sapiens [2]): 1 MU

COc1ccc(CC(C)N)cc1 (stereo not drawn) [PARA-METHOXYAMPHETAMINE]
Log activity (Homo sapiens [1]): 0.699
Activity (Homo sapiens [2]): 5 MU

CCc1cc(OC)c(CC(C)N)cc1OC (stereo not drawn)
Log activity (Homo sapiens [1]): 2
Activity (Homo sapiens [2]): 100 MU
ED50 (Rattus norvegicus): 0.23 mg/kg

CC(N)Cc1ccc2c(c1)OCO2 (stereo not drawn) [TENAMFETAMINE]
Log activity (Homo sapiens [1]): 0.477
Activity (Homo sapiens [2]): 3 MU
ED50 (Rattus norvegicus): 1.68 mg/kg

CCCOc1cc(CCN)cc(OC)c1OC
Log activity (Homo sapiens [1]): -0.301
Activity (Homo sapiens [2]): <1 MU

CCOc1cc(CCN)cc(OC)c1SCC
Log activity (Homo sapiens [1]): 0.602
Activity (Homo sapiens [2]): 4 MU

CCOc1cc(CCN)cc(OCC)c1OC
Log activity (Homo sapiens [1]): -0.301
Activity (Homo sapiens [2]): <1 MU

COc1cc2c(cc1CC(C)N)OCO2 (stereo not drawn)
Log activity (Homo sapiens [1]): 1
Activity (Homo sapiens [2]): 10 MU

CCCCOc1c(OC)cc(CCN)cc1OC
Log activity (Homo sapiens [1]): 0.301
Activity (Homo sapiens [2]): 2 MU

COc1ccc(CCN)c(OC)c1OC
Log activity (Homo sapiens [1]): -0.301
Activity (Homo sapiens [2]): <1 MU

CCOc1cc(CCN)cc(OC)c1OC
Log activity (Homo sapiens [1]): 0
Activity (Homo sapiens [2]): 1 MU

COc1cc(OC)c(OC)cc1CC(C)N (stereo not drawn)
Log activity (Homo sapiens [1]): 1.301
Activity (Homo sapiens [2]): 20 MU

COc1ccc(CC(C)N)c2c1OCO2 (stereo not drawn)
Log activity (Homo sapiens [1]): 0.477
Activity (Homo sapiens [2]): 3 MU

COc1cc(CC(C)N)c(OC)cc1CC(C)C (stereo not drawn)
Log activity (Homo sapiens [1]): 1.301
Activity (Homo sapiens [2]): 20 MU

COc1cc(CC(C)N)c(OC)cc1C (stereo not drawn) [DOM]
Log activity (Homo sapiens [1]): 1.903
Activity (Homo sapiens [2]): 80 MU
ED50 (Rattus norvegicus): 0.44 mg/kg

CCOc1c(OC)cc(CCN)cc1SCC
Log activity (Homo sapiens [1]): 0.301
Activity (Homo sapiens [2]): 2 MU

CCCSc1c(OC)cc(CCN)cc1OC
Log activity (Homo sapiens [1]): 1.204
Activity (Homo sapiens [2]): 16 MU

CCSc1c(OC)cc(CCN)cc1OC
Log activity (Homo sapiens [1]): 1.301
Activity (Homo sapiens [2]): 20 MU

CCOc1cc(OC)c(CC(C)N)cc1OC (stereo not drawn)
Log activity (Homo sapiens [1]): 1.301
Activity (Homo sapiens [2]): 20 MU

CCc1cc(OC)c(CCN)cc1OC
Log activity (Homo sapiens [1]): 1.255
Activity (Homo sapiens [2]): 18 MU

COc1ccc(CCN)cc1OC
Log activity (Homo sapiens [1]): -1
Activity (Homo sapiens [2]): <0.2 MU

COc1ccc(OC)c(OC)c1CC(C)N (stereo not drawn)
Log activity (Homo sapiens [1]): 1
Activity (Homo sapiens [2]): 10 MU

COc1c(CC(C)N)cc2c(c1OC)OCO2 (stereo not drawn)
Log activity (Homo sapiens [1]): 0.699
Activity (Homo sapiens [2]): 5 MU

CCCOc1cc(OC)c(CC(C)N)cc1OC (stereo not drawn)
Log activity (Homo sapiens [1]): 1.301
Activity (Homo sapiens [2]): 20 MU

COc1cc(SC(C)C)c(OC)cc1CC(C)N (stereo not drawn)
Log activity (Homo sapiens [1]): 1.602
Activity (Homo sapiens [2]): 40 MU

COc1cc(CC(C)N)cc2c1OCO2 (stereo not drawn)
Log activity (Homo sapiens [1]): 0.431
Activity (Homo sapiens [2]): 2.7 MU
ED50 (Rattus norvegicus): 3.66 mg/kg

COc1ccc(CCN)cc1
Log activity (Homo sapiens [1]): -0.301
Activity (Homo sapiens [2]): <1 MU

COc1ccc2c(c1CC(C)N)OCO2 (stereo not drawn)
Log activity (Homo sapiens [1]): 1
Activity (Homo sapiens [2]): 10 MU

COc1cc(CCN)cc(OC)c1SC
Log activity (Homo sapiens [1]): 1.079
Activity (Homo sapiens [2]): 12 MU

COc1ccc(CC(C)N)c(OC)c1 (stereo not drawn)
Log activity (Homo sapiens [1]): 0.699
Activity (Homo sapiens [2]): 5 MU
ED50 (Rattus norvegicus): 4.88 mg/kg

CCOc1cc(CCN)cc(SCC)c1OCC
Log activity (Homo sapiens [1]): -0.301
Activity (Homo sapiens [2]): <1 MU

COc1cc(CC(C)N)c(OC)c(OC)c1OC (stereo not drawn)
Log activity (Homo sapiens [1]): 0.778
Activity (Homo sapiens [2]): 6 MU

COc1cc(CC(C)N)cc(OC)c1OC (stereo not drawn)
Log activity (Homo sapiens [1]): 0.301
Activity (Homo sapiens [2]): 2 MU
ED50 (Rattus norvegicus): 6.34 mg/kg

CCOc1c(OC)cc(CCN)cc1OC
Log activity (Homo sapiens [1]): 0.845
Activity (Homo sapiens [2]): 7 MU

CCOc1c(OC)cc(CCN)cc1SC
Log activity (Homo sapiens [1]): 0.778
Activity (Homo sapiens [2]): 6 MU

COc1cc(CC(C)N)c(OC)c2c1OCO2 (stereo not drawn)
Log activity (Homo sapiens [1]): 1.079
Activity (Homo sapiens [2]): 12 MU

COc1cc(CC(C)N)cc(C)c1OCc1ccccc1 (stereo not drawn)
Log activity (Homo sapiens [1]): 0.301
Activity (Homo sapiens [2]): 2 MU

CCOc1cc(CCN)cc(SC)c1OC
Log activity (Homo sapiens [1]): -0.301
Activity (Homo sapiens [2]): <1 MU

Source: ChEMBL document CHEMBL1125153, “Structure-activity correlations for psychotomimetics. 1. Phenylalkylamines: electronic, volume, and hydrophobicity parameters” (1990)
